# Assay: Dynamic Vapor Sorption/Desorption (DVS)
# Type: physicochemical
# Conditions: 5% to 95% relative humidity at 10% RH intervals, nitrogen purge
# Experimental: Moisture sorption/desorption data were collected on a VTI SGA-100 Vapor Sorption Analyzer. Sorption and desorption data were collected over a range of 5% to 95% relative humidity (RH) at 10% RH intervals under a nitrogen purge. Samples were not dried prior to analysis. Equilibrium criteria used for analysis were less than 0.0100% weight change in 5 minutes, with a maximum equilibration time of 3 hours if the weight criterion was not met. Data were not corrected for the initial moisture content of the samples. Sodium chloride and polyvinypyrrolidine were used as calibration standards.
compound,measurement,value
COc1cc(F)c(F)c(Nc2ccc(I)cc2F)c1NS(=O)(=O)C1(C[C@H](O)CO)CC1 [Form A],weight change during moisture sorption/desorption,negligible weight change

# Reference: patent US9174933B2
